Earlier results as cited in patent US12220416B2, “Methylene-tetrahydrofolate reductase isoform-based biomarker and method of use thereof” (RUSH UNIVERSITY MEDICAL CENTER, priority 2017, dated 2025).

Conditions: RA patients on MTX therapy; ADEs provoke discontinuation of MTX therapy; ref [38]

Compound: CN(Cc1cnc2nc(N)nc(N)c2n1)c1ccc(C(=O)N[C@@H](CCC(=O)O)C(=O)O)cc1 [MTX, Methotrexate]
- RA patients developing MTX-related adverse drug events (ADEs): approximately 30%
